In article PMC11167041, “Purification, characterization and three-dimensional structure prediction of multicopper oxidase Laccases from Trichoderma lixii FLU1 and Talaromyces pinophilus FLU12” (Scientific Reports, 2024):
Where two headings read alike, the source gives them in different places. Each block holds one compound with its values, some of them ahead of it.

Legend:
[1] = tested on: T1, Laccase from Trichoderma lixii FLU1 (TlFLU1); assay: spectrophotometric oxidation assay, […] nm, Michaelis-Menten fit; assay type: biochemical; settings: 50 mM acetate buffer pH 5, 30 °C; substrate varied 1-5 mM
T1 construct: native extracellular enzyme purified from culture; monomer, 44 kDa (SDS-PAGE)

[2] = tested on: T2, Laccase from Talaromyces pinophilus FLU12 (TpFLU12); assay: as above; assay type: biochemical; settings: 50 mM acetate buffer pH 7, 50 °C; substrate varied 1-5 mM
T2 construct: native extracellular enzyme purified from culture

[3] = tested on: T2, Laccase from Talaromyces pinophilus FLU12 (TpFLU12); assay: as above; assay type: biochemical; settings: 50 mM acetate buffer pH 7, 50 °C; substrate varied 1-5 mM; remark: listed apart in the source
[4] = tested on: Laccase from Trichoderma lixii FLU1 (TlFLU1); settings: 50 mM acetate buffer pH 5, 30 °C; substrate varied 1-5 mM
[5] = tested on: T1, Laccase from Trichoderma lixii FLU1 (TlFLU1); assay: spectrophotometric oxidation assay, […] nm, Michaelis-Menten fit; assay type: biochemical; settings: 50 mM acetate buffer pH 5, 30 °C; substrate varied 1-5 mM; remark: listed apart in the source
[6] = tested on: T1, Laccase from Trichoderma lixii FLU1 (TlFLU1); assay: as above; assay type: biochemical; settings: 50 mM acetate buffer pH 5, 30 °C; substrate varied 1-5 mM; remark: listed apart in the source

- Km [1]: 43 µM
- Km [2]: 38.6 µM
SMILES: O=C(O)/C=C/c1ccc(O)c(O)c1 [caffeic acid]

- Km [3]: 8.2 µM
- Km [4]: 10.8 µM
SMILES: CCn1c(=NN=c2sc3cc(S(=O)(=O)O)ccc3n2CC)sc2cc(S(=O)(=O)O)ccc21 [ABTS, 2,2-azino-bis-(3-ethyl-benzothiazoline-6-sulphonic acid)]

- Km [5]: 12.7 µM
SMILES: COc1ccccc1O [guaiacol]

- Km [6]: 13 µM
SMILES: COc1cccc(OC)c1O [2,6-DMP, 2,6-dimethoxyphenol]
